Data on five compounds can be found in patent US6358921B1, “Antimicrobial peptide compositions and method” (priority 1996, dated 2002).

One series has as its system yeast. The series can be described thus: Antibiotic activity, yeast. Particulars: average activity calculated from Table II. Format: cell-based. The source says:
(§1) The following bacterial strains were utilized: Escherichia coli UB1005 (wt) and its antibiotic supersusceptible derivative DC2 (Clark, 1984); Excherichia coli SC9251 and its polymixin B rasistant mutant pmrA SC9252 (Peterson, et al., 1987) Pseudomonas aeruginosa H187 (wt) (Angus, et al., 1987) and its antibiotic-sensitive derivative H188 (Zimmerman, W, Antimicrob. Agents Chemother. 18: 94-100, 1980); methicillin sensitive Staphylococcus aureus K147 (Kreiswirth, et al., 1983); Staphylococcus aureus SAP0017, a methicillin resistant clinical isolate from Dr. A. Chow (University of British Columia); Bacillus subtilis, an environmental wt lab strain. Enterococcus faecalis are ATCC 29212 cells and Staphylococcus epidermidis was a clinical isolate from Dr. D. Speert (University of British Columbia). Antifungal activity was tested using a clinical lab isolate of Candida albicans. Salmonella typhinurium C57 and C610 (Fields, P.I., et al., Science 243: 1059-1062 (1989) Corynebacterium xerosis was an environmental isolate (University of British Columbia).
(§2) It is now apparent that agar-based assays severely underestimate antifungal activity as well as activity against gram negative microorganisms (Kondejewski, et al., 1996). Consequently, in the studies reported herein, a liquid-broth method was used to measure the antibiotic properties of the peptides. […] Briefly, cells were grown overnight at 37° C. in LB and diluted in the same medium. Serial dilutions of antibiotics were added to the microtitre plates in a volume of 100 μL followed by 10 μL of bacteria to give a final inoculum of 5×10^5 CFU/mL. Plates were incubated at 37° C. overnight and MICs determined as the lowest antibiotic concentration that inhibited growth.
(§3) The results from antimicrobial and hemolytic assays are combined to provide a “Therapeutic Index” (TI) for each peptide with respect to individual microorganisms. As reported herein, the TI is calculated as the hemolytic activity divided by the antimicrobial activity. The TI thus is a measure of specificity of the particular peptide for microbial membranes as opposed to human blood cell membranes. In the present studies, antimicrobial activities are reported as minimum inhibitory concentrations (MIC)—the lowest concentration of peptide (μg/ml) found to inhibit growth of the particular microbe. Hemolytic activity is reported as the concentration of peptide that effected complete lysis of blood cells after four hours. Thus, in the context of the present invention high TI values indicate microbial specificity and relative lack of toxicity.

The test system of another series is E. coli DC2. The series is classed as cell-based, Escherichia coli. Conditions: for Antibiotic activity (Table 11, ring analogs): E. coli DC2, unit from Table 10. The gist of the method: (§4)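 Minimum inhibitory concentrations come from a broth rather than agar assay, using LB medium, a final inoculum of 5×10^5 CFU/mL and overnight incubation at 37 °C. Values are in μg/ml.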

Series [1] in a line: Displacement of dansyl-polymyxin from LPS. Format: binding, P. aeruginosa. Summed up:
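Peptides titrated into 3 μg/mL P. aeruginosa LPS with 2.5 μM dansyl-polymyxin (~90% site saturation) in 5 mM sodium HEPES, pH 7.0; fluorescence decrease recorded. I50 (50% probe displacement) taken from the x-intercept of a double-reciprocal plot of percent inhibition versus inhibitor concentration.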

A further series deals with E. coli UB1005. The series is classed as cell-based, Escherichia coli. Particulars: for Antibiotic activity (Table 11, ring analogs): E. coli UB1005, unit from Table 10. The gist of the method: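 Growth inhibition was scored after overnight culture at 37 °C in LB with peptide serial dilutions (inoculum 5×10^5 CFU/mL); MICs were the lowest inhibitory concentrations. Test strains were E. coli UB1005 (wild type), C. xerosis (environmental), and C. albicans and S. epidermidis (clinical isolates).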

For the next series, the system named is human erythrocytes. The series can be described thus: Hemolytic activity. The series is classed as cell-based. The method, then:
Serial dilutions of the peptides in saline were prepared in round bottom microtitre plates using 100 μL volumes. Red blood cells were diluted with saline to 1/25 packed volume of cells and 50 μL added to each well. Plates were incubated with rocking at 37° C., and the concentration required for complete lysis determined visually after 4 h.

The test system of another series is P. aeruginosa H187. The series is classed as cell-based, Pseudomonas aeruginosa. Conditions: for Antibiotic activity (Table 11, ring analogs): P. aeruginosa H187, unit from Table 10. The gist of the method:
as §4

The test system of the next series is E. coli SC9251. The series can be described thus: MIC, liquid-broth microtitre dilution. Particulars: unit from Table 10. The series is classed as cell-based, Escherichia coli.
Excerpt: as §1, §2

For another series, the system named is E. coli SC9252. The series can be described thus: MIC, liquid-broth microtitre dilution. The series is classed as cell-based, Escherichia coli. Conditions: unit from Table 10.
Excerpt: as §1, §2

The test system of a further series is P. aeruginosa H188. Format: cell-based, Pseudomonas aeruginosa. Particulars: for Antibiotic activity (Table 11, ring analogs): P. aeruginosa H188, unit from Table 10. Summed up:
(§5)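 Antimicrobial activity is measured by a liquid-broth assay in LB at 37 °C overnight, starting from 5×10^5 CFU/mL. Values are minimal inhibitory concentrations, i.e. the lowest concentration that stops growth.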

The test system of series [2] is gram positive microorganisms. The series is classed as cell-based. Conditions: average activity calculated from Table II.
Excerpt: as §1, §2, §3

In series [3] the test system is gram negative microorganisms. The series is classed as cell-based. Conditions: for Antibiotic activity, gram-negative: average activity calculated from Table II.
Excerpt: as §1, §2, §3

Another series concerns S. typhinurium C610. Format: cell-based, Salmonella typhinurium. Summed up: as §5
The test system of another series is S. typhinurium C587. The series is classed as cell-based, Salmonella typhinurium. The gist of the method:
as §5

The next series has as its system C. Albicans. Format: cell-based, Candida albicans. Conditions: C. Albicans. The gist of the method:
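Liquid-broth rather than agar method. Organisms: clinical isolates (C. albicans, S. epidermidis), environmental C. xerosis, wild-type E. coli UB1005.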

[4] abbreviates: Table 10, read-out: LPS binding activity: peptide concentration to displace 50% of dansyl-polymyxin from LPS.

Where two headings read alike, the source gives them in different places. Where a SMILES comes first, the peptide text is derived from it. [ ]: non-standard residue; d: D form. Orn = NCCC[C@H](N)C(=O)O

In the case of `CC(C)C[C@@H]1NC(=O)[C@H](CCCN)NC(=O)[C@H](CC(C)C)NC(=O)[C@@H]2CCCN2C(=O)[C@@H](Cc2ccccc2)NC(=O)[C@H](CC(C)C)NC(=O)[C@H](CCCN)NC(=O)[C@H](CC(C)C)NC(=O)[C@H](CCCN)NC(=O)[C@@H]2CCCN2C(=O)[C@@H](Cc2ccccc2)NC(=O)[C@H](CCCN)NC1=O` [GS12FO/LL, FPLOLOFPOLOL] (cyclo(L[Orn]L[Orn][dF]P[Orn]L[Orn]L[dF]P)), in the series with yeast, the “Antibiotic activity, yeast” value is 16 µg/mL. For the same compound, the “Antibiotic activity (Table 11, ring analogs)” value in the series with E. coli DC2 came out at 5 μg/ml; in the series with E. coli UB1005, 16 μg/ml; in the series on P. aeruginosa H187, 63 μg/ml; with E. coli SC9251, 8 μg/ml; in the series on E. coli SC9252, 9 μg/ml; in the series with P. aeruginosa H188 it was 8 μg/ml. Further, the IC50 in series [1] (setting [4]) was 44 µM. This compound came in with a Hemolytic activity in the series on human erythrocytes of 170 µg/mL. The “Antibiotic activity, gram-positive” value in [2] was 42 µg/mL. In series [3], the “Antibiotic activity, gram-negative” value was 18 µg/mL.
Consider `CC(C)C[C@@H]1NC(=O)[C@H](CCCCN)NC(=O)[C@H](C(C)C)NC(=O)[C@@H]2CCCN2C(=O)[C@@H](Cc2ccccc2)NC(=O)[C@H](CC(C)C)NC(=O)[C@H](CCCCN)NC(=O)[C@H](C(C)C)NC(=O)[C@H](CCCCN)NC(=O)[C@@H]2CCCN2C(=O)[C@@H](Cc2ccccc2)NC(=O)[C@H](CCCCN)NC1=O` [GS12F], for which, in the series with yeast, the “Antibiotic activity, yeast” value was 13 µg/mL. Moreover, the “Antibiotic activity (Table 11, ring analogs)” value was determined as 9 μg/ml with E. coli DC2; 17 μg/ml with E. coli UB1005; 38 μg/ml with P. aeruginosa H187; 11 μg/ml in the series on E. coli SC9251; 14 μg/ml with E. coli SC9252; 8 μg/ml with P. aeruginosa H188. In [1] (setting [4]), the IC50 was found to be 127 µM. This compound gave a Hemolytic activity in the series on human erythrocytes of 400 µg/mL. Also, the “Antibiotic activity, gram-positive” value in series [2] was 110 µg/mL. In addition, the “Antibiotic activity, gram-negative” value in series [3] was 16 µg/mL.
As to `CC(C)C[C@@H]1NC(=O)[C@H](CCCN)NC(=O)[C@H](C(C)C)NC(=O)[C@@H]2CCCN2C(=O)[C@@H](Cc2ccccc2)NC(=O)[C@H](CC(C)C)NC(=O)[C@H](CCCN)NC(=O)[C@H](C(C)C)NC(=O)[C@@H]2CCCN2C(=O)[C@@H](Cc2ccccc2)NC1=O` [GS, cyclo(Val-Orn-Leu-D-Phe-Pro)2, reference compound] (cyclo(V[Orn]L[dF]PV[Orn]L[dF]P)), the “Minimum Inhibitory Concentration (activity)” value with E. coli DC2 (DC2) was determined as 3.1 µg/mL; with S. typhinurium C610 it was 9 µg/mL; in the series on S. typhinurium C587 it was 18 µg/mL; with E. coli UB1005 (UB1005), 9 µg/mL; with P. aeruginosa H187 (H187) it was 25 µg/mL; in the series with P. aeruginosa H188 (H188) it was 6.2 µg/mL. The “Minimum Inhibitory Concentration (activity)” value with C. Albicans is 6.2 µg/mL. Further, the “Antibiotic activity (Table 11, ring analogs)” value in the series with E. coli DC2 turned out to be 9 μg/ml; in the series on E. coli UB1005, 19 μg/ml; in the series on P. aeruginosa H187, 25 μg/ml; in the series with E. coli SC9251, 13 μg/ml; in the series on E. coli SC9252, 5 μg/ml; in the series with P. aeruginosa H188, 16 μg/ml. Moreover, in [1] (read-out: LPS binding affinity: peptide concentration to displace 50% of dansyl-polymyxin B from LPS, Tables 1, 4, 7), the IC50 worked out at 295 µM. Besides, the “Hemolytic activity: peptide concentration for 100% lysis of human erythrocytes” value with human erythrocytes worked out at 12.5 µg/mL. In addition, the “MIC against gram-negative organisms, particularly E. coli and P. aeruginosa” value in [3] was in the range of 3 to 12.5 µg/mL.
As to `CC(C)C[C@@H]1NC(=O)[C@H](CCCCN)NC(=O)[C@H](C(C)C)NC(=O)[C@@H]2CCCN2C(=O)[C@@H](Cc2ccc(O)cc2)NC(=O)[C@H](CC(C)C)NC(=O)[C@H](CCCCN)NC(=O)[C@H](C(C)C)NC(=O)[C@H](CCCCN)NC(=O)[C@@H]2CCCN2C(=O)[C@@H](Cc2ccc(O)cc2)NC(=O)[C@H](CCCCN)NC1=O` [GS12], the “Antibiotic activity, yeast” value in the series with yeast is 42 µg/mL. Also, the “Antibiotic activity (Table 11, ring analogs)” value in the series on E. coli DC2 is 11 μg/ml; with E. coli UB1005, 25 μg/ml; with P. aeruginosa H187, 75 μg/ml; in the series on E. coli SC9251, 42 μg/ml; in the series with E. coli SC9252 it was 30 μg/ml; in the series on P. aeruginosa H188, 10 μg/ml. The IC50 in [1] (setting [4]) was found to be 46 µM. For the same compound, the “Increase in LPS binding activity in comparison to shorter peptides” value in series [1] (addition of two positive charges) is “approximately 6 fold”. In addition, the Hemolytic activity with human erythrocytes was 250 µg/mL. In addition, the “Antibiotic activity, gram-positive” value in series [2] is 240 µg/mL. For the same compound, in series [3], the “Antibiotic activity, gram-negative” value is 32 µg/mL.
In the case of `CC(C)C[C@@H]1NC(=O)[C@H](CCCN)NC(=O)[C@H](C(C)C)NC(=O)[C@@H]2CCCN2C(=O)[C@@H](Cc2ccccc2)NC(=O)[C@H](CC(C)C)NC(=O)[C@H](CCCN)NC(=O)[C@H](C(C)C)NC(=O)[C@H](CCCN)NC(=O)[C@@H]2CCCN2C(=O)[C@@H](Cc2ccccc2)NC(=O)[C@H](CCCN)NC1=O` [GS12FO, FPVOLOFPOVOL] (cyclo(L[Orn][dF]P[Orn]V[Orn]L[dF]PV[Orn])), in the series with yeast, the “Antibiotic activity, yeast” value was 16 µg/mL. Besides, the “Antibiotic activity (Table 11, ring analogs)” value in the series on E. coli DC2 came out at 5 μg/ml; with E. coli UB1005, 22 μg/ml; with P. aeruginosa H187, 50 μg/ml; in the series with E. coli SC9251, 6 μg/ml; in the series with E. coli SC9252, 9 μg/ml; with P. aeruginosa H188 it was 5 μg/ml. Moreover, in series [1] (setting [4]), the IC50 came to 105 µM. The same compound displayed a Hemolytic activity with human erythrocytes of 160 µg/mL. Further, the “Antibiotic activity, gram-positive” value in series [2] is 120 µg/mL. Further, the “Antibiotic activity, gram-negative” value in [3] is 16 µg/mL.
